Measured values reported in patent US12383545B1, “Treatment of migraine” (priority 2018, dated 2025).
Values joined by “and” are separate entries in the source; they are usually repeats but may differ in a detail not shown here. Identical values can stand only once.

System: participants with episodic migraine
Experiment: Study A: phase 3 randomized double-blind placebo-controlled 12-week trial, eDiary efficacy (monthly migraine days, headache days, acute medication use days, responder rates)
Format: in vivo, human
Settings: for Change from baseline in mean monthly acute medication use days, LS mean change (SE) / Change from baseline in mean monthly headache days, LS mean change (SE) / Change from baseline in mean monthly migraine days, LS mean change (SE) / Mean monthly acute medication use days, LSMD vs. placebo (95% CI) / Mean monthly headache days, LSMD vs. placebo (95% CI) / Mean monthly migraine days, LSMD vs. placebo (95% CI): across 12-week treatment period; for Change from baseline in mean monthly acute medication use days, LS mean change (SE) / Change from baseline in mean monthly headache days, LS mean change (SE) / Change from baseline in mean monthly migraine days, LS mean change (SE) / Mean monthly acute medication use days, LSMD vs. placebo (95% CI) / Mean monthly headache days, LSMD vs. placebo (95% CI) / Mean monthly migraine days, LSMD vs. placebo (95% CI) / ≥50% reduction in 3-month average of monthly migraine days, odds ratio vs. placebo (95% CI) / ≥50% reduction in 3-month average of monthly migraine days, responder n (%): mITT; for decrease in mean monthly headache days / decrease in monthly migraine days: 12 weeks; for decrease in mean monthly headache days / decrease in monthly migraine days / decrease in mean monthly acute medication use days: given as decrease; for decrease in mean monthly acute medication use days: across 12 weeks; for proportion of participants who reported a migraine day: first full day after study drug administration; for LS mean change from baseline in mean headache days / LS mean reduction from baseline in mean cumulative headache hours: first treatment period; for LS mean change from baseline in acute medication use days / LS mean change from baseline in moderate/severe headache days: first treatment period (weeks 1-4); for Mean change from baseline in weekly migraine days: first week of treatment; for odds ratio vs placebo for reporting a migraine: post dose day 1
Experimental: Study A: A phase 3, multicenter, randomized, double-blind, placebo-controlled, parallel-group study was conducted to evaluate the efficacy, safety, and tolerability of oral atogepant for the prevention of migraine in participants with episodic migraine (EM).
This study comprised a 4-week screening and baseline period, a 12-week double-blind treatment period, and a 4-week follow-up period. The total study duration was 20 weeks.
Adults 18 to 80 years of age with 4 to 14 migraine days per month in the 3 months prior to visit 1, and 4 to 14 migraine days during the 28-day baseline period per electronic Diary, were allowed to enroll. Inclusion criteria included at least a 1-year history of migraine with or without aura consistent with a diagnosis, diagnosed as specified in the International Classification of Headache Disorders, 3rd edition, version (ICHD-3), and the age of the participant at the time of migraine onset was <50 years. Exclusion criteria included a history of migraine accompanied by diplopia or decreased level of consciousness or retinal migraine; a current diagnosis of chronic migraine, new persistent daily headache, trigeminal autonomic cephalgia (e.g., cluster headache), or painful cranial neuropathy as defined by ICHD-3, or if they averaged 15 or more migraine days per month across the 3 months prior to Visit 1 or during the 28-day baseline period; a history of an inadequate response to >4 medications (2 of which have different mechanisms of action) prescribed for the treatment of migraine; and participants with clinically significant hematologic, endocrine, cardiovascular, pulmonary, renal, hepatic, gastrointestinal, or neurologic disease. Use of opioids or barbiturate on more than 2 days per month, triptans or ergots on 10 or more days per month, or simple analgesics (e.g., aspirin, non-steroidal anti-inflammatory drugs, acetaminophen) on 15 or more days per month in the 3 months prior to Visit 1 or during the 28-day baseline period were also excluded. Use of barbiturates was also excluded 30 days prior to screening and throughout the duration of the trial.
Randomization was stratified based on prior exposure (yes/no) to a migraine prevention medication with proven efficacy, such as antiepileptics, tricyclic antidepressants, beta-blockers, calcium channel blocker, angiotensin receptor blocker or converting enzyme inhibitor, or serotonin-norepinephrine reuptake inhibitors. Approximately 70% of randomized participants took at least one prior migraine prevention medication with proven efficacy. Participants were not on concurrent medication during the study.
A total of 910 patients were randomized 1:1:1:1 to one of the four treatment groups (10 mg QD, 30 mg QD, 60 mg QD, or placebo). Efficacy analyses were based on the Modified Intent-to-Treat Population (mITT) of 873 patients.
All participants were instructed to take trial treatment orally at approximately the same time once daily for 12 weeks. To maintain the blinding, all participants took 3 tablets of trial treatment provided in identical blister cards: placebo (placebo 10 mg/placebo 30 mg/placebo 60 mg), atogepant 10 mg (atogepant 10 mg/placebo 30 mg/placebo 60 mg), atogepant 30 mg (placebo 10 mg, atogepant 30 mg, placebo 60 mg), and atogepant 60 mg (placebo 10 mg/placebo 30 mg/atogepant 60 mg). Participants, site personnel, and trial sponsor personnel were blinded to the treatment assignment. Tablet formulations for CGRP compounds are described, for example, in U.S. Pat. No. 10,117,936.
Participants were allowed to take acute treatments for migraine which included triptans, ergot derivatives, opioids, acetaminophen, non-steroidal anti-inflammatory drugs, and antiemetic agents. Participants were not allowed to take any preventive treatments for migraine 30 days prior to visit 1 and throughout the trial.
Efficacy assessments were recorded by the participant in an electronic diary at home or via eTablet at the trial site during clinic visits. […]

[1] = range across atogepant 10, 30, 60 mg groups

C[C@@H]1[C@H](c2c(F)ccc(F)c2F)C[C@H](NC(=O)c2cnc3c(c2)C[C@@]2(C3)C(=O)Nc3ncccc32)C(=O)N1CC(F)(F)F [atogepant]
100% reduction in 3-month average of monthly migraine days, responder n (%) (10 mg QD): 17 (7.9) %
≥25% reduction in 3-month average of monthly migraine days, responder n (%) (10 mg QD): 73.4%
≥75 reduction in 3-month average of monthly migraine days, responder n (%) (10 mg QD): 30.4%
Change from baseline in mean monthly acute medication use days, LS mean change (SE) (10 mg QD): -3.66 days
Change from baseline in mean monthly headache days, LS mean change (SE) (10 mg QD): -3.94 days
Change from baseline in mean monthly migraine days, LS mean change (SE) (10 mg QD): -3.69 days
Mean monthly acute medication use days, LSMD vs. placebo (95% CI) (10 mg QD): -1.31 days
Mean monthly headache days, LSMD vs. placebo (95% CI) (10 mg QD): -1.42 days
Mean monthly migraine days, LSMD vs. placebo (95% CI) (10 mg QD): -1.21 days
≥50% reduction in 3-month average of monthly migraine days, odds ratio vs. placebo (95% CI) (10 mg QD): 3.06
≥50% reduction in 3-month average of monthly migraine days, responder n (%) (10 mg QD): 55.6%
≥50% reduction in 3-month average of monthly migraine days, responder n (%) (10 mg QD, listed as Atogepant): (55.6) %
decrease in mean monthly headache days (10 mg): 3.94 days
decrease in monthly migraine days (10 mg): 3.69 days
decrease in mean monthly acute medication use days (10 mg): 3.66 days
proportion of participants who reported a migraine day (10 mg): 14.1%
LS mean change from baseline in mean headache days (10 mg): −3.2
LS mean reduction from baseline in mean cumulative headache hours (10 mg): -23.3 h
LS mean change from baseline in acute medication use days (10 mg): −3.3
LS mean change from baseline in moderate/severe headache days (10 mg): −3.0
Mean change from baseline in weekly migraine days (10 mg): −0.77
odds ratio vs placebo for reporting a migraine (10 mg): 0.49
mean change from baseline in mean monthly migraine days (10 mg, weeks 1-4): −3.1
mean change from baseline in mean monthly migraine days (10 mg, weeks 5-8): −3.7
mean change from baseline in mean monthly migraine days (10 mg, weeks 9-12): −4.2
100% reduction in 3-month average of monthly migraine days, responder n (%) (30 mg QD): 11 (4.0) %
≥25% reduction in 3-month average of monthly migraine days, responder n (%) (30 mg QD): 172 (77.1) %
≥75 reduction in 3-month average of monthly migraine days, responder n (%) (30 mg QD): 66 (29.6) %
Change from baseline in mean monthly acute medication use days, LS mean change (SE) (30 mg QD): -3.68 days
Change from baseline in mean monthly headache days, LS mean change (SE) (30 mg QD): -4.04 days
Change from baseline in mean monthly migraine days, LS mean change (SE) (30 mg QD): -3.86 days
Mean monthly acute medication use days, LSMD vs. placebo (95% CI) (30 mg QD): -1.33 days
Mean monthly headache days, LSMD vs. placebo (95% CI) (30 mg QD): -1.53 days
Mean monthly migraine days, LSMD vs. placebo (95% CI) (30 mg QD): -1.38 days
≥50% reduction in 3-month average of monthly migraine days, odds ratio vs. placebo (95% CI) (30 mg QD): 3.53
≥50% reduction in 3-month average of monthly migraine days, responder n (%) (30 mg QD): 58.7%
≥50% reduction in 3-month average of monthly migraine days, responder n (%) (30 mg QD, listed as Atogepant): (58.7) %
decrease in mean monthly headache days (30 mg): 4.04 days
decrease in monthly migraine days (30 mg): 3.86 days
decrease in mean monthly acute medication use days (30 mg): 3.68 days
proportion of participants who reported a migraine day (30 mg): 10.8%
LS mean change from baseline in mean headache days (30 mg): −3.4
LS mean reduction from baseline in mean cumulative headache hours (30 mg): -23.6 h
LS mean change from baseline in acute medication use days (30 mg): −3.4
LS mean change from baseline in moderate/severe headache days (30 mg): −3.2
Mean change from baseline in weekly migraine days (30 mg): −0.94
odds ratio vs placebo for reporting a migraine (30 mg): 0.33
mean change from baseline in mean monthly migraine days (30 mg, weeks 1-4): −3.4
mean change from baseline in mean monthly migraine days (30 mg, weeks 5-8): −3.9
mean change from baseline in mean monthly migraine days (30 mg, weeks 9-12): −4.3
100% reduction in 3-month average of monthly migraine days, responder n (%) (60 mg QD): 17 (7.7) %
≥25% reduction in 3-month average of monthly migraine days, responder n (%) (60 mg QD): 180 (81.1) %
≥75 reduction in 3-month average of monthly migraine days, responder n (%) (60 mg QD): 84 (37.8) %
Change from baseline in mean monthly acute medication use days, LS mean change (SE) (60 mg QD): -3.85 days
Change from baseline in mean monthly headache days, LS mean change (SE) (60 mg QD): -4.23 days
Change from baseline in mean monthly migraine days, LS mean change (SE) (60 mg QD): -4.20 days
Mean monthly acute medication use days, LSMD vs. placebo (95% CI) (60 mg QD): -1.50 days
Mean monthly headache days, LSMD vs. placebo (95% CI) (60 mg QD): -1.71 days
Mean monthly migraine days, LSMD vs. placebo (95% CI) (60 mg QD): -1.72 days
≥50% reduction in 3-month average of monthly migraine days, odds ratio vs. placebo (95% CI) (60 mg QD): 3.82
≥50% reduction in 3-month average of monthly migraine days, responder n (%) (60 mg QD): 60.8%
≥50% reduction in 3-month average of monthly migraine days, responder n (%) (60 mg QD, listed as Atogepant): (60.8) %
decrease in mean monthly headache days (60 mg): 4.23 days
decrease in monthly migraine days (60 mg): 4.20 days
decrease in mean monthly acute medication use days (60 mg): 3.85 days
proportion of participants who reported a migraine day (60 mg): 12.3%
LS mean change from baseline in mean headache days (60 mg): −3.8
LS mean reduction from baseline in mean cumulative headache hours (60 mg): -25.1 h
LS mean change from baseline in acute medication use days (60 mg): −3.7
LS mean change from baseline in moderate/severe headache days (60 mg): −3.8
Mean change from baseline in weekly migraine days (60 mg): −1.03
odds ratio vs placebo for reporting a migraine (60 mg): 0.39
mean change from baseline in mean monthly migraine days (60 mg, weeks 1-4): −3.9
mean change from baseline in mean monthly migraine days (60 mg, weeks 5-8): −4.2
mean change from baseline in mean monthly migraine days (60 mg, weeks 9-12): −4.4
times more likely than placebo to achieve ≥50% reduction in the 12-week average of MMDs (atogepant treated participants (all doses)): ≥ 3 times
participants with 100% reduction in MMDs across 12 weeks [1]: 5%-8%
participants with ≥25% reduction in MMDs across 12 weeks [1]: 73%-81%
participants with ≥50% reduction in mean MMDs across 12 weeks [1]: 56%-61% and 56-61%
participants with ≥75% reduction in MMDs across 12 weeks [1]: 30%-38%
